The text below walks through data of US7267949B2, “Composition comprising methylphenidate and another drug” (Celltech Pharma Europe Limited, priority 1995, dated 2007).

Series [1] deals with CYP2C19 (P450 Isozyme 2C19) (Homo sapiens, UniProt P33261). The experiment in a line: Mephenytoin hydroxylase activity in human microsome preparations. To be noted: human, human microsome preparations, probe mephenytoin.
The target of series [2] is CYP2D6 (P450 Isozyme 2D6) (Homo sapiens, UniProt P10635). The experiment in a line: Bufuralol hydroxylase activity in human microsome preparations. Conditions: human.
Series [3] concerns the target CYP2C9 (P450 Isozyme 2C9) (Homo sapiens, UniProt P11712). The experiment in a line: Tolbutamide hydroxylase activity in human microsome preparations. Conditions: microsomes.
The test system of another series is CYP2B (P450 Isozyme 2B). The series can be described thus: Lauric acid 11-hydroxylase activity in human microsome preparations. To be noted: human, human microsome preparations, probe lauric acid.
The next series concerns rats. To be noted: 10 mg/kg, given 10 minutes following methylphenidate, within 15 to 25 minutes; cited from earlier work.
Another series concerns the target P450 Isozyme 2C19 (Homo sapiens, UniProt P33261). The series can be described thus: Mephenytoin hydroxylase activity in human microsome preparations. Conditions: test substance at 100 μM, human microsomes.
For a further series, the target named is P450 Isozyme 2D6 (Homo sapiens, UniProt P10635). The series can be described thus: Bufuralol hydroxylase activity in human microsome preparations. Conditions: test substance at 100 μM, human microsomes.
A further series has as its system mouse liver. The series can be described thus: Toxicity in the mouse liver. It counts as in vivo. To be noted: compared with racemic methylphenidate. The source says:
The invention is thus of particular utility in that proportion of the population in which the relevant enzymes have reduced efficiency, or that are receiving the cross-reacting drugs, e.g SSRIs, in therapy of, say, anxiety or depression.

The subject of another series is P450 Isozyme 2B. The series can be described thus: Lauric acid 11-hydroxylase activity in human microsome preparations. Conditions: test substance at 100 μM, human microsomes.

Chain of CYP2D6 (P450 Isozyme 2D6) (P10635 whole entry): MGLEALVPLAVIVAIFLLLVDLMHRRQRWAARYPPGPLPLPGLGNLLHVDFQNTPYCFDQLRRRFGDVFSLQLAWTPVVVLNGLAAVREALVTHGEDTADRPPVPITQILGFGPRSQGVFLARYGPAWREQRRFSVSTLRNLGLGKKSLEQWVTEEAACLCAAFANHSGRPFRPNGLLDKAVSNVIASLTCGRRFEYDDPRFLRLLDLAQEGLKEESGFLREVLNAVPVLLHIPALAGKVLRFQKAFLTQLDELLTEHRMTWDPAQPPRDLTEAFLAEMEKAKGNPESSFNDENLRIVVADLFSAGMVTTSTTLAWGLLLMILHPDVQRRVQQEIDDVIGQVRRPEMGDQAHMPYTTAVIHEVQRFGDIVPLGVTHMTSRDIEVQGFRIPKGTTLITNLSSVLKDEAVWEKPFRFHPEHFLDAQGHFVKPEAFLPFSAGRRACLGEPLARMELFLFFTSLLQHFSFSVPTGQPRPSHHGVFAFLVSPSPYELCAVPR
Chain of P450 Isozyme 2D6 (P10635 whole entry): as above
Chain of P450 Isozyme 2C19 (P33261 whole entry): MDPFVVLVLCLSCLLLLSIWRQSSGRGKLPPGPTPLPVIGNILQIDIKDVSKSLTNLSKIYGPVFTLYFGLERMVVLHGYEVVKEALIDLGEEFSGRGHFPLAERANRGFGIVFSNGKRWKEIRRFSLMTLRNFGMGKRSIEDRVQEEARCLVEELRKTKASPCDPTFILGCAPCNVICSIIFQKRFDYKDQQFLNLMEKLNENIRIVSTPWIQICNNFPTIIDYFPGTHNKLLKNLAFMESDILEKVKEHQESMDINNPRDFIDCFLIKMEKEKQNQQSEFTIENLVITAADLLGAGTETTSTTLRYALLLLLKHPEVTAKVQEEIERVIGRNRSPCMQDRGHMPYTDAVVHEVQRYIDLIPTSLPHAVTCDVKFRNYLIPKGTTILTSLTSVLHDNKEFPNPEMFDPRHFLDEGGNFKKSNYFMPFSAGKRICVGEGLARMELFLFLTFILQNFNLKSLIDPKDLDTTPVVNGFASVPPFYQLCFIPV
Chain of CYP2C19 (P450 Isozyme 2C19) (P33261 whole entry): as above
Chain of CYP2C9 (P450 Isozyme 2C9) (P11712 whole entry): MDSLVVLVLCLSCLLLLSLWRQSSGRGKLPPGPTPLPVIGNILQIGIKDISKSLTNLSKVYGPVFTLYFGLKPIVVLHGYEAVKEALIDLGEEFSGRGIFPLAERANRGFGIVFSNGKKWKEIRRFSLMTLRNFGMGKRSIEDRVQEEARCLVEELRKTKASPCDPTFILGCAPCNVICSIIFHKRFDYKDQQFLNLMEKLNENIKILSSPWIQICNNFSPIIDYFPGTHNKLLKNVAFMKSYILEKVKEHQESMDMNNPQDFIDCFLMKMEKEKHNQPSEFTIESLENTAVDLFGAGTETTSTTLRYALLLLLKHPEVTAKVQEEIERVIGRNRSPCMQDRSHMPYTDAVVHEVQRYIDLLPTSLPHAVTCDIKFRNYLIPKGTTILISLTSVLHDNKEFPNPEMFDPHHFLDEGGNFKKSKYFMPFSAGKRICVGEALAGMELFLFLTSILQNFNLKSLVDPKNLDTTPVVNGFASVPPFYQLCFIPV

With `COC(=O)C(c1ccccc1)C1CCCCN1` (racemic) [Racemic Methylphenidate, methylphenidate], the inhibition (in general, the change of the read-out against control, counted positive when it falls) at 100 µM in series [1] is 44%; in series [2] (microsomes), 65%; in [3], 19%; with CYP2B (P450 Isozyme 2B) it was < 15%.
For the compound `NCC(CC(=O)O)c1ccc(Cl)cc1` (stereo not shown) [Baclofen], the “block of methylphenidate-enhanced activity and stereotypics” value in the series with rats was “uniform block”.
Regarding `C=C[C@H]1C[N@@]2CC[C@H]1C[C@@H]2[C@@H](O)c1ccnc2ccc(OC)cc12` [Quinidine], the inhibition at 10 µM in series [2] (human microsome preparations, probe bufuralol) was > 90%.
Consider `COC(=O)[C@H](c1ccccc1)[C@H]1CCCCN1` [dtmp, d-threo-methylphenidate], for which the “% Inhibition of Enzyme Activity (Mephenytoin hydroxylase, 2C19)” value at P450 Isozyme 2C19 came out at 31%. Also, the “% Inhibition of Enzyme Activity (Bufuralol hydroxylase, 2D6)” value at P450 Isozyme 2D6 was found to be 64%. Also, in the series on mouse liver, the “toxicity in the mouse liver” value is listed as “less toxicity in the mouse liver than racemic methylphenidate”. Also, in the series on P450 Isozyme 2B, the “% Inhibition of Enzyme Activity (Lauric acid 11-hydroxylase, 2B)” value is recorded as <20%.
With `COC(=O)[C@@H](c1ccccc1)[C@@H]1CCCCN1` [ltmp], the “% Inhibition of Enzyme Activity (Mephenytoin hydroxylase, 2C19)” value at P450 Isozyme 2C19 came to 33%. Further, the “% Inhibition of Enzyme Activity (Bufuralol hydroxylase, 2D6)” value at P450 Isozyme 2D6 was determined as 41%. Moreover, in the series on P450 Isozyme 2B, the “% Inhibition of Enzyme Activity (Lauric acid 11-hydroxylase, 2B)” value is reported as <20%.
